Source: ChEMBL document CHEMBL4602690, “Pigments of the Moss Paraleucobryum longifolium: Isolation and Structure Elucidation of Prenyl-Substituted 8,8'-Linked 9,10-Phenanthrenequinone Dimers” (J Nat Prod, 2020)

Columns and labels:
Assay type in all cases: functional, cell-based
SiHa = assay: Antiproliferative activity against human SiHa cells by MTT assay
MDA-MB-231 = assay: Antiproliferative activity against human MDA-MB-231 cells by MTT assay
A2780 = assay: Antiproliferative activity against human A2780 cells by MTT assay
HeLa = assay: Antiproliferative activity against human HeLa cells by MTT assay

Measured: IC50

C=C(C)[C@H](CCC(C)(C)O)Cc1c(O)ccc2c1C(=O)C(=O)c1c-2c(O)cc(OC)c1-c1c(OC)cc(O)c2c1C(=O)C(=O)c1c-2ccc(O)c1C[C@@H](CCC(C)(C)O)C(=C)C
< 10 µM: all assays above

COc1cc(O)c2c(c1-c1c(OC)cc(O)c3c1C(=O)C(=O)c1c-3ccc(O)c1CCC(C)(C)O)C(=O)C(=O)c1c-2ccc(O)c1CCC(C)(C)O
< 10 µM: all assays above
